#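 Results reflect a 48-hour exposure of cells in 96-well plates to compound at five concentrations. Here, GI50 denotes the concentration required for 50% inhibition of growth.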 Active and inactive are the calls of the source. No stated cut-off is given here; in the data, active = GI50 up to about 1.1 µM and inactive = higher.
# Legend:
# Assay in all cases: growth of human tumour cells (NCI), 48 h
# NCI-H522 = system: NCI-H522
# OVCAR-5 = system: OVCAR-5
# SK-OV-3 = system: SK-OV-3
# U-251 = system: U-251
# HCC 2998 = system: HCC 2998
# SF-268 = system: SF-268
# DMS-273 = system: DMS-273
# MDA-N = system: MDA-N
# LOX IMVI = system: LOX IMVI
# Hs-578T = system: Hs-578T
# 786-0 = system: 786-0
# SNB-78 = system: SNB-78
# SW-620 = system: SW-620
# IGROV-1 = system: IGROV-1
# DLD-1 = system: DLD-1
# TK-10 = system: TK-10
# MOLT-4 = system: MOLT-4
# NCI-H226 = system: NCI-H226
# SK-MEL-28 = system: SK-MEL-28
# CCRF-CEM = system: CCRF-CEM
Structure (SMILES),GI50 (NCI-H522),GI50 (OVCAR-5),GI50 (SK-OV-3),GI50 (U-251),GI50 (HCC 2998),GI50 (SF-268),GI50 (DMS-273),GI50 (MDA-N),GI50 (LOX IMVI),GI50 (Hs-578T),GI50 (786-0),GI50 (SNB-78),GI50 (SW-620),GI50 (IGROV-1),GI50 (DLD-1),GI50 (TK-10),GI50 (MOLT-4),GI50 (NCI-H226),GI50 (SK-MEL-28),GI50 (CCRF-CEM)
COc1ccc2[nH]c3c(C)c4c(c(C)c3c2c1)CN(C)C=C4,1.2 µM (inactive),7.57 µM (inactive),7.23 µM (inactive),0.219 µM (active),2.71 µM (inactive),0.175 µM (active),0.75 µM (active),15 µM (inactive),9.77 µM (inactive),0.24 µM (active),0.191 µM (active),0.432 µM (active),1.35 µM (inactive),1.82 µM (inactive),1.92 µM (inactive),15.1 µM (inactive),0.65 µM (active),0.267 µM (active),3.44 µM (inactive),3.76 µM (inactive)
C[C@]12CCc3nonc3C1CC[C@@H]1C2CC[C@]2(C)C(=O)CCC12 (stereo not given in full),19.8 µM (inactive),> 100 µM (inactive),33 µM (inactive),48.6 µM (inactive),26.5 µM (inactive),39.4 µM (inactive),20.7 µM (inactive),,21.5 µM (inactive),,> 100 µM (inactive),59.6 µM (inactive),40.1 µM (inactive),67.1 µM (inactive),50 µM (inactive),> 10 µM (inactive),22.4 µM (inactive),76.9 µM (inactive),> 10 µM (inactive),24.1 µM (inactive)
CN(C)CC1CCCCCCCCCC(CN(C)C)C1=O (stereo not given),2.7 µM (inactive),> 49.1 µM (inactive),> 28.8 µM (inactive),> 37.5 µM (inactive),> 100 µM (inactive),> 34.3 µM (inactive),> 100 µM (inactive),5.62 µM (inactive),,8.18 µM (inactive),> 20.6 µM (inactive),> 100 µM (inactive),> 21.2 µM (inactive),> 39.9 µM (inactive),> 100 µM (inactive),> 37.8 µM (inactive),7.03 µM (inactive),> 43 µM (inactive),32.1 µM (inactive),12 µM (inactive)
NC(CCCNc1ccc(O)cc1)C(=O)O (stereo not given),61.4 µM (inactive),> 100 µM (inactive),> 100 µM (inactive),> 100 µM (inactive),40.6 µM (inactive),42.8 µM (inactive),> 100 µM (inactive),,18.5 µM (inactive),,17.2 µM (inactive),> 83.6 µM (inactive),21.3 µM (inactive),26.4 µM (inactive),20.4 µM (inactive),> 63.2 µM (inactive),25.4 µM (inactive),> 100 µM (inactive),42.6 µM (inactive),23.4 µM (inactive)
Cn1cc2ccccc2c1-c1nc(F)nc(Nc2ccc(N)cc2)n1,14.4 µM (inactive),26.4 µM (inactive),11.6 µM (inactive),8.28 µM (inactive),18 µM (inactive),20 µM (inactive),10.2 µM (inactive),,12.4 µM (inactive),,22.3 µM (inactive),15.2 µM (inactive),14.8 µM (inactive),12.7 µM (inactive),13 µM (inactive),34.3 µM (inactive),17.5 µM (inactive),16.5 µM (inactive),15.5 µM (inactive),12.7 µM (inactive)
COc1cccc2c1C(=O)c1c(O)c3c(c(O)c1C2=O)C[C@@](O)(C(=O)CO)CC3OC1CC(NCCCC(OC(C)=O)OC(C)=O)C(O)C(C)O1 (stereo not given in full),0.00129 µM (active),0.00267 µM (active),0.00501 µM (active),0.00308 µM (active),0.00228 µM (active),0.00305 µM (active),< 0.0001 µM (active),,0.000233 µM (active),,0.00219 µM (active),0.00224 µM (active),0.00202 µM (active),0.006 µM (active),0.0023 µM (active),0.00641 µM (active),0.00224 µM (active),0.00153 µM (active),0.00259 µM (active),0.00212 µM (active)
COc1ccc(/C=C\c2cc(OC)c(OC)c(OC)c2)c(O)c1O [COMBRETASTATIN A-1],0.0942 µM (active),4.37 µM (inactive),,0.0759 µM (active),0.166 µM (active),0.0665 µM (active),0.05 µM (active),< 0.01 µM (active),0.119 µM (active),< 0.01 µM (active),0.69 µM (active),0.0953 µM (active),0.0643 µM (active),1.57 µM (inactive),0.123 µM (active),2.92 µM (inactive),0.0785 µM (active),,5.41 µM (inactive),0.0682 µM (active)
NC1=NC(c2ccccc2)CC(c2cc(Cl)cc(Br)c2O)=N1 (stereo not given),3.79 µM (inactive),19.6 µM (inactive),24.7 µM (inactive),12.5 µM (inactive),13.6 µM (inactive),11.7 µM (inactive),7.55 µM (inactive),,12.7 µM (inactive),,16.9 µM (inactive),17.2 µM (inactive),8.2 µM (inactive),14.5 µM (inactive),12 µM (inactive),18.8 µM (inactive),3.1 µM (inactive),18.9 µM (inactive),13.1 µM (inactive),7.71 µM (inactive)
C/C(=N\NC(=O)C[N+](C)(C)C)c1sc(-c2cccnc2)nc1C,42.7 µM (inactive),> 100 µM (inactive),> 100 µM (inactive),> 100 µM (inactive),> 100 µM (inactive),> 100 µM (inactive),> 100 µM (inactive),,> 100 µM (inactive),,> 100 µM (inactive),> 100 µM (inactive),> 100 µM (inactive),> 100 µM (inactive),> 100 µM (inactive),> 100 µM (inactive),> 100 µM (inactive),> 100 µM (inactive),> 100 µM (inactive),> 100 µM (inactive)

# From ChEMBL document CHEMBL1201862, “PubChem BioAssay data set” (2004)
